Laboratory results from patent US20230295109A1, “PYRIDINONE COMPOUNDS FOR THE TREATMENT OF AUTOIMMUNE DISEASE” (F. Hoffmann-La Roche AG, priority 2020, published 2023).

Columns and labels:
hERG channel = target: T1, hERG channel (Homo sapiens, UniProt Q12809); assay: hERG channel inhibition assay (patch-clamp, CHOhERG cells); format: cell-based; details: for IC50 / IC20: CHOhERG cells, whole-cell patch-clamp; for IC20: human, CHO cells stably expressing hERG (CHOhERG); for hERG IC20 / TLR8 IC50 / hERG IC20 / TLR9 IC50 / hERG IC20 /TLR7 IC50: safety ratio
T1 construct: expressed in transfected cells; host or cells: CHO (Chinese hamster ovary), CHOhERG
T1 sequence (Q12809 whole entry): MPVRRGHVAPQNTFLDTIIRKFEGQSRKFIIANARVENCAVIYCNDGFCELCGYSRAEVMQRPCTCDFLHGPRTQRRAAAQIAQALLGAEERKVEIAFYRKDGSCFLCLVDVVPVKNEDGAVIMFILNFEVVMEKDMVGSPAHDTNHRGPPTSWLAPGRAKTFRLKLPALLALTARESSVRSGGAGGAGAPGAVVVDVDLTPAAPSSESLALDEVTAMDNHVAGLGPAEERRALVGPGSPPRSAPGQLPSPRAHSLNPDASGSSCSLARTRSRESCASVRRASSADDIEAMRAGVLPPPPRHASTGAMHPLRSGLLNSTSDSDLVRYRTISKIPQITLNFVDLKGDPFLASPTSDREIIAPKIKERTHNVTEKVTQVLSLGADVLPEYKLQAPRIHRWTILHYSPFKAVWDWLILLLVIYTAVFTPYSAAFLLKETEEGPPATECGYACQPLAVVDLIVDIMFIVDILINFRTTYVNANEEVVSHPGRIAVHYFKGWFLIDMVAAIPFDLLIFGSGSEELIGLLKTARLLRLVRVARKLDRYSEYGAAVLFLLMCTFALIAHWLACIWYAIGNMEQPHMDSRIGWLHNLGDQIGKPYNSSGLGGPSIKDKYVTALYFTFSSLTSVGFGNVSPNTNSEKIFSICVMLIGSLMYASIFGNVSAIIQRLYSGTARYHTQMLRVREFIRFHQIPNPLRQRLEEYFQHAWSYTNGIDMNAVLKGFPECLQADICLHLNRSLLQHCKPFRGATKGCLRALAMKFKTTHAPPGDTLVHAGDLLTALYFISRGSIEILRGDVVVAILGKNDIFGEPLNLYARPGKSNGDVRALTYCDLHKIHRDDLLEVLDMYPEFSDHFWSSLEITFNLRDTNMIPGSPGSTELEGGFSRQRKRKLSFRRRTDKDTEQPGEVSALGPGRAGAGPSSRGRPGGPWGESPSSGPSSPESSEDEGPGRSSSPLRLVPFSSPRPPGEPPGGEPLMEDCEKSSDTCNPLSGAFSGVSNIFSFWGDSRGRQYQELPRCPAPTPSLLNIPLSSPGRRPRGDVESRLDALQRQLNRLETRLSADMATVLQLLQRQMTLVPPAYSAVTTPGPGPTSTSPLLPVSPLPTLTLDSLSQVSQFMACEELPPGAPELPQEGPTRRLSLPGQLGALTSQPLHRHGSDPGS
Protocol: The hERG K^+ channels were cloned in humans and stably expressed in a CHO (Chinese hamster ovary) cell line. CHOhERG cells were used for patch-clamp (voltage-clamp, whole-cell) experiments. Cells were stimulated by a voltage pattern to activate hERG channels and conduct IKhERG currents (rapid delayed outward rectifier potassium current of the hERG channel). After the cells were stabilized for a few minutes, the amplitude and kinetics of IKhERG were recorded at a stimulation frequency of 0.1 Hz (6 bpm). Thereafter, the test compound was added to the preparation at increasing concentrations. For each concentration, an attempt was made to reach a steady-state effect, usually, this was achieved within 3-10 min at which time the next highest concentration was applied. The amplitude and kinetics of IKhERG are recorded in each concentration of the drug which were compared to the control values (taken as 100%). (references: Redfern WS, Carlsson L, Davis AS, Lynch WG, MacKenzie I, Palethorpe S, Siegl PK, Strang I, Sullivan AT, Wallis R, Camm AJ, Hammond TG. 2003; Relationships between preclinical cardiac electrophysiology, clinical QT interval prolongation and torsade de pointes for a broad range of drugs: evidence for a provisional safety margin in drug development. Cardiovasc. Res. 58:32-45, Sanguinetti MC, Tristani-Firouzi M. 2006; hERG potassium channels and cardiac arrhythmia. Nature 440:463-469, Webster R, Leishman D, Walker D. 2002; Towards a drug concentration effect relationship for QT prolongation and torsades de pointes. Curr. Opin. Drug Discov. Devel. 5:116-26).

TLR9 = target: T2, TLR9 (Homo sapiens, UniProt Q9NR96); assay: Human PBMC cell-based assay, TLR9 (CpG ODN 2216); set-up: These cells express TLR7, TLR8, or TLR9, and therefore are natural responders to respective ligand stimulation; endogenous in cells; host or cells: primary human PBMC from healthy donor whole blood; details: CpG ODN 2216 at 1 µM, overnight, cytokine levels, read-out: hPBMC/TLR9 IC50
T2 sequence (Q9NR96 26-1032): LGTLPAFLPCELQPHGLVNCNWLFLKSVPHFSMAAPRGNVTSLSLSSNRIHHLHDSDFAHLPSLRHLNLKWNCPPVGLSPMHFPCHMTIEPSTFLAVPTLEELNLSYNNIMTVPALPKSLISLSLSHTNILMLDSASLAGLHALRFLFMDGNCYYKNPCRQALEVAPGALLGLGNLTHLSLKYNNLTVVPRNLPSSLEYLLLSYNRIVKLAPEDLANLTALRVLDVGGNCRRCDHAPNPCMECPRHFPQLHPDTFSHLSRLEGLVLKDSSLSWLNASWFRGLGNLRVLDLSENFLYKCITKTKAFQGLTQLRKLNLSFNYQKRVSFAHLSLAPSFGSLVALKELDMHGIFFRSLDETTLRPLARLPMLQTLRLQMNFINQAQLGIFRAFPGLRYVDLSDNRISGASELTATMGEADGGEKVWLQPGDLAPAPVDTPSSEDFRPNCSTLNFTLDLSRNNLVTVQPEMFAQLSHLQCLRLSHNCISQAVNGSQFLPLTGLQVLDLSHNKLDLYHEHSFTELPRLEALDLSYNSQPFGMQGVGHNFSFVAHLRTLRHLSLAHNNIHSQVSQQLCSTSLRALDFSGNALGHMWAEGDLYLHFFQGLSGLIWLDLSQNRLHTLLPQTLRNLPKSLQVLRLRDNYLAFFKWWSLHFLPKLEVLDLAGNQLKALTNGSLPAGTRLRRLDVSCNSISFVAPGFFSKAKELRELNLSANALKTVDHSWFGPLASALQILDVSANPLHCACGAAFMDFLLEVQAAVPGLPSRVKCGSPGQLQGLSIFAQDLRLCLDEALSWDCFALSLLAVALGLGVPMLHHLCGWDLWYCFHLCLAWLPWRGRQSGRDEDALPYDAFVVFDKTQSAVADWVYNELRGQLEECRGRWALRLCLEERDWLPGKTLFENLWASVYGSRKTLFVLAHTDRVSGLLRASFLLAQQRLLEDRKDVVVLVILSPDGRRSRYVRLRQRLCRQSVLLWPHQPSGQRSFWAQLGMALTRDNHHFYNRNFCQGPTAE
Excerpt: Unlike the HEK reporter cell lines, human peripheral blood mononuclear cell (PBMC) represents primary human immune cells in blood mainly consisting of lymphocytes, monocytes, and dendritic cells. These cells express TLR7, TLR8, or TLR9, and therefore are natural responders to respective ligand stimulation. Upon activation of these TLRs, PBMCs secrete similar cytokines and chemokines in vitro and in vivo, and therefore the in vitro potency of a TLR7/8/9 antagonist in human PBMC is readily translatable to its pharmacodynamics response in vivo.
Human peripheral blood mononuclear cells (PBMC) were isolated from freshly-drawn lithium-heparinized (Lithium Heparin Plus blood Collection tube, BD Vacutainer®) healthy donor whole blood by density gradient (Ficoll-PaqueTM PLUS, GE Healthcare life Sciences). Briefly, […] was diluted with 25 mL PBS (without Ca^2+, Mg^2+) in a 50 mL conical tube with porous barrier (Leucosep tube, Greiner bio-one), where 15.5 mL Ficoll-Paque was under laid after spinning. Tubes were centrifuged for 20 minutes at 800×g (1946 rpm) with the brake in the off position, and PBMC were collected from the buffy coat. Cells were then washed twice in PBS, and red blood cells were lysed by suspension in 2 mL (Red Blood Cell Lysis Buffer, Alfa Aesar) for 5-10 minutes at room temperature. After a final wash in PBS, PBMC were resuspended at a final concentration of 2×10^6 cells/mL in RPMI-1640 media with GlutaMAXTM (Gibco) supplemented with 10% Fetal Bovine Serum (Sigma) and plated at 150µL/well (3×10^5 cells/well) in tissue culture treated round bottom 96-well plates (Corning Incorporated). Antagonist compounds (compounds of this invention) solubilized and serial diluted in 100% DMSO were added in duplicate to cells to yield a final concentration of 1% DMSO (v/v). PBMC were incubated with antagonist compounds for 30 minutes at 37° C., 5% CO2 before adding various TLR agonist reagents in 48 µL complete media per well as follows (final concentrations indicated): CpG ODN 2216 (InvivoGen) at 1 µM for TLR9, ORN 06/LyoVec (InvivoGen) at 1 µg/mL for TLR8 and R848 (InvivoGen) at 1 µg/mL for TLR7 and TLR8. PBMC were incubated overnight at 37° C. with 5% CO2. Cell culture supernatants were collected, and levels of various human cytokines were assessed by Luminex assay (ProcartaPlexTM Multiplex Immunoassay, Invitrogen) or ELISA procedure according to the manufacturer’s recommended protocol (eBioscience, ThermoFisher Scientific). Viability of the cells was also checked with Cell Viability Assay (CellTiter Glo®Luminescent Cell Viability Assay, Promega).

Row | Compound | IC50 (TLR9) [nM] | IC50 (hERG channel) [µM] | IC20 (hERG channel) [µM] | hERG IC20 / TLR8 IC50 (hERG channel) | hERG IC20 / TLR9 IC50 (hERG channel) | hERG IC20 /TLR7 IC50 (hERG channel)
1 | CCc1nc(N2CCN(Cc3cnc(N4CC5(CNCCO5)C4)nc3)CC2)ccc1-c1cc(C)c(=O)n(C)c1 [Example 1, 5-[2-ethyl-6-[4-[[2-(5-oxa-2,8-diazaspiro[3.5]nonan-2-yl)pyrimidin-5-yl]methyl]piperazin-1-yl]-3-pyridyl]-1,3-dimethyl-pyridin-2-one] | 388 | > 20 | > 10 | >14285.2 | >14.2 | >1052.6
2 | CCc1nc(N2CCN(Cc3ccc(N4CC5(CNCCO5)C4)nc3)CC2)ccc1-c1cc(C)c(=O)n(C)c1 [Example 2, 5-[2-ethyl-6-[4-[[6-(5-oxa-2,8-diazaspiro[3.5]nonan-2-yl)-3 pyridyl]methyl]piperazin-1-yl]-3-pyridyl]-1,3-dimethyl-pyridin-2-one] | 362 | > 20 | > 10 | >33000 | >47.1 | >961.8
3 | CCc1nc(N2CCN(Cc3cnc(N4CC(C)(N)C4)nc3)CC2)ccc1-c1cc(C)c(=O)n(C)c1 [Example 3, 5-[6-[4-[[2-(3-amino-3-methyl-azetidin-1-yl)pyrimidin-5-yl]methyl]piperazin-1-yl]-2-ethyl-3-pyridyl]-1,3-dimethyl-pyridin-2-one] | 377 | > 20 | > 10 | >33000 | >31.4 | >724.6
4 | Cc1cc(-c2ccc(N3CCN(Cc4cnc(N5CC6(CNCCO6)C5)nc4)CC3)nc2C(C)C)cn(C)c1=O [Example 6, 5-[2-isopropyl-6-[4-[[2-(5-oxa-2,8-diazaspiro[3.5]nonan-2-yl)pyrimidin-5-yl]methyl]piperazin-1-yl]-3-pyridyl]-1,3-dimethyl-pyridin-2-one] | 730 | – | – | – | – | –
5 | Cc1cc(-c2ccc(N3CCC(N4CCNCC4)CC3)nc2C(C)C)cn(C)c1=O [Example 18, 5-[2-isopropyl-6-(4-piperazin-1-yl-1-piperidyl)-3-pyridyl]-1,3-dimethyl-pyridin-2-one] | 700 | – | – | – | – | –

Compounds with a lower IC50 (TLR9), results first:

Row | IC50 (TLR9) [nM] | Compound | IC50 (hERG channel) [µM] | IC20 (hERG channel) [µM] | hERG IC20 / TLR8 IC50 (hERG channel) | hERG IC20 / TLR9 IC50 (hERG channel) | hERG IC20 /TLR7 IC50 (hERG channel)
6 | 263 | Cc1cc(-c2ccc(N3CCN4CCN(c5ccc(N6CCNCC6)nc5)CC4C3)nc2C(C)C)cn(C)c1=O (centres unmarked) [Example 16, 5-[2-isopropyl-6-[8-(6-piperazin-1-yl-3-pyridyl)-3,4,6,7,9,9a-hexahydro-1H-pyrazino[1,2-a]pyrazin-2-yl]-3-pyridyl]-1,3-dimethyl-pyridin-2-one] | – | – | – | – | –
7 | 115 | Cc1cc(-c2ccc(N3CCN(Cc4ncc(N5CCNCC5)cn4)CC3)nc2C(C)C)cn(C)c1=O [Example 12, 5-[2-isopropyl-6-[4-[(5-piperazin-1-ylpyrimidin-2-yl)methyl]piperazin-1-yl]-3-pyridyl]-1,3-dimethyl-pyridin-2-one] | – | – | – | – | –
8 | 101 | Cc1cc(-c2ccc(N3CCN(Cc4ccc(N5CCNCC5)cn4)CC3)nc2C(C)C)cn(C)c1=O [Example 7, 5-[2-isopropyl-6-[4-[(5-piperazin-1-yl-2-pyridyl)methyl]piperazin-1-yl]-3-pyridyl]-1,3-dimethyl-pyridin-2-one] | > 20 | 4.7 | 16000 | 24.4 | 940
9 | 47 | Cc1cc(-c2ccc(N3CCN(Cc4cnc(N5CCNCC5)nc4)CC3)nc2C(C)C)cn(C)c1=O [Example 9, 5-[2-isopropyl-6-[4-[(2-piperazin-1-ylpyrimidin-5-yl)methyl]piperazin-1-yl]-3-pyridyl]-1,3-dimethyl-pyridin-2-one] | – | – | – | – | –
